Test system: MV-4-11 cells
Assay: Gene expression microarray analysis (Affymetrix PrimeView) and GSEA
Type: cell-based, human
Parameters: RFU PODN (11730768_x_at) / Fold change /veh PODN (11730768_x_at) / RFU LINC00158 (11744669_a_at) / Fold change /veh LINC00158 (11744669_a_at) / RFU DUSP10 (11751237_a_at) / Fold change /veh DUSP10 (11751237_a_at) / RFU ID3 (11757404_x_at) / Fold change /veh ID3 (11757404_x_at) / RFU PLEKHG5 (11737974_s_at) / Fold change /veh PLEKHG5 (11737974_s_at) / RFU LRRC4B (11730491_at) / Fold change /veh LRRC4B (11730491_at) / RFU GIMAP4 (11747438_a_at) / Fold change /veh GIMAP4 (11747438_a_at) / RFU KRT8 (11758183_x_at) / Fold change /veh KRT8 (11758183_x_at) / RFU CNN1 (11734310_a_at) / Fold change /veh CNN1 (11734310_a_at) / RFU VPS37D (11726825_at) / Fold change /veh VPS37D (11726825_at) / RFU C10orf10 (11716522_x_at) / Fold change /veh C10orf10 (11716522_x_at) / RFU KIR2DL2 /// KIR2DL4 /// KIR2DL5A /// KIR2DL5B /// KIR2DS1 /// KIR2DS2 /// KIR2DS3 /// KIR2DS4 /// KIR3DL3 /// KIR3DL3 /// KIR3DS1 (11738374_at) / Fold change /veh KIR2DL2 /// KIR2DL4 /// KIR2DL5A /// KIR2DL5B /// KIR2DS1 /// KIR2DS2 /// KIR2DS3 /// KIR2DS4 /// KIR3DL3 /// KIR3DL3 /// KIR3DS1 (11738374_at) / RFU C1QL1 (11718748_at) / Fold change /veh C1QL1 (11718748_at) / RFU TMPRSS4 (11747572_a_at) / Fold change /veh TMPRSS4 (11747572_a_at) / RFU HAMP (11756126_x_at) / Fold change /veh HAMP (11756126_x_at) / RFU RNFT2 (11725882_a_at) / Fold change /veh RNFT2 (11725882_a_at) / RFU NR4A2 (11747474_a_at) / Fold change /veh NR4A2 (11747474_a_at) / RFU ABCC12 (11746883_a_at) / Fold change /veh ABCC12 (11746883_a_at) / RFU TMEM136 (11760407_x_at) / Fold change /veh TMEM136 (11760407_x_at) / RFU CLDN22 /// WWC2 (11732394_at) / Fold change /veh CLDN22 /// WWC2 (11732394_at) / RFU HLA-DPB1 (11760878_x_at) / Fold change /veh HLA-DPB1 (11760878_x_at) / RFU SPINT1 (11716480_a_at) / Fold change /veh SPINT1 (11716480_a_at) / RFU GAP43 (11754022_s_at) / Fold change /veh GAP43 (11754022_s_at) / RFU A4GNT (11735810_at) / Fold change /veh A4GNT (11735810_at) / RFU PRB3 (11715151_x_at) / Fold change /veh PRB3 (11715151_x_at) / RFU TUBB4B (11761932_at) / Fold change /veh TUBB4B (11761932_at) / RFU CAPN14 (11732068_a_at) / Fold change /veh CAPN14 (11732068_a_at) / RFU TMCC2 (11721928_a_at) / Fold change /veh TMCC2 (11721928_a_at) / RFU IRGQ (11745062_a_at) / Fold change /veh IRGQ (11745062_a_at) / RFU FAM174B (11720279_a_at) / Fold change /veh FAM174B (11720279_a_at) / RFU TMPRSS4 (11748680_a_at) / Fold change /veh TMPRSS4 (11748680_a_at) / RFU FAM212B (11763350_a_at) / Fold change /veh FAM212B (11763350_a_at) / RFU PLEKHG5 (11743358_a_at) / Fold change /veh PLEKHG5 (11743358_a_at) / RFU ZSCAN30 (11745921_a_at) / Fold change /veh ZSCAN30 (11745921_a_at) / RFU CMKLR1 (11741424_a_at) / Fold change /veh CMKLR1 (11741424_a_at) / RFU LOC101060620 /// MAPK8IP1 (11723275_at) / Fold change /veh LOC101060620 /// MAPK8IP1 (11723275_at) / RFU SPTSSB (11747773_x_at) / Fold change /veh SPTSSB (11747773_x_at) / RFU PRSS12 (11739890_at) / Fold change /veh PRSS12 (11739890_at) / RFU BIN1 (11741810_x_at) / Fold change /veh BIN1 (11741810_x_at) / RFU WNT11 (11732464_a_at) / Fold change /veh WNT11 (11732464_a_at) / RFU C10orf10 (11716521_a_at) / Fold change /veh C10orf10 (11716521_a_at) / RFU C5orf56 (11738089_at) / Fold change /veh C5orf56 (11738089_at) / RFU CYB561 (11721691_x_at) / Fold change /veh CYB561 (11721691_x_at) / RFU ANKRD19P (11752326_a_at) / Fold change /veh ANKRD19P (11752326_a_at) / RFU OR2T12 /// OR2T33 /// OR2T8 (11738714_s_at) / Fold change /veh OR2T12 /// OR2T33 /// OR2T8 (11738714_s_at) / RFU VCAN (11748164_a_at) / Fold change /veh VCAN (11748164_a_at) / RFU JSRP1 (11732532_at) / Fold change /veh JSRP1 (11732532_at) / RFU KRTAP10-11 (11738290_x_at) / Fold change /veh KRTAP10-11 (11738290_x_at) / RFU MYO3A (11730013_a_at) / Fold change /veh MYO3A (11730013_a_at) / RFU EBF3 (11725865_a_at) / Fold change /veh EBF3 (11725865_a_at) / RFU CAMK2N1 (11719241_x_at) / Fold change /veh CAMK2N1 (11719241_x_at) / RFU C5orf56 (11738088_a_at) / Fold change /veh C5orf56 (11738088_a_at) / RFU OLFML3 (11715873_a_at) / Fold change /veh OLFML3 (11715873_a_at) / RFU LOC100653217 /// NTM (11731650_a_at) / Fold change /veh LOC100653217 /// NTM (11731650_a_at) / RFU MAPK11 (11762145_a_at) / Fold change /veh MAPK11 (11762145_a_at) / RFU FIZ1 (11724087_x_at) / Fold change /veh FIZ1 (11724087_x_at) / RFU OASL (11726364_x_at) / Fold change /veh OASL (11726364_x_at) / RFU SOX15 (11748057_x_at) / Fold change /veh SOX15 (11748057_x_at) / RFU CD79A (11719716_a_at) / Fold change /veh CD79A (11719716_a_at) / RFU HIST1H1D (11736915_at) / Fold change /veh HIST1H1D (11736915_at) / RFU CASKIN2 (11723855_a_at) / Fold change /veh CASKIN2 (11723855_a_at) / RFU LOC730098 (11760151_x_at) / Fold change /veh LOC730098 (11760151_x_at) / RFU OR4N2 (11742367_at) / Fold change /veh OR4N2 (11742367_at) / RFU PRRT2 (11749266_a_at) / Fold change /veh PRRT2 (11749266_a_at) / RFU SNX32 (11753110_a_at) / Fold change /veh SNX32 (11753110_a_at) / RFU CDHR5 (11726645_a_at) / Fold change /veh CDHR5 (11726645_a_at) / RFU RCAN1 (11760418_a_at) / Fold change /veh RCAN1 (11760418_a_at) / RFU FAM167A (11723789_a_at) / Fold change /veh FAM167A (11723789_a_at) / RFU FAM26E (11764081_at) / Fold change /veh FAM26E (11764081_at) / RFU ISYNA1 (11749810_s_at) / Fold change /veh ISYNA1 (11749810_s_at) / RFU ACY1 (11761880_at) / Fold change /veh ACY1 (11761880_at) / RFU 11764098_at / Fold change /veh 11764098_at / RFU SAMD14 (11745864_x_at) / Fold change /veh SAMD14 (11745864_x_at) / RFU NPB (11741838_a_at) / Fold change /veh NPB (11741838_a_at) / RFU TMPRSS6 (11731388_a_at) / Fold change /veh TMPRSS6 (11731388_a_at) / RFU KRTAP10-2 (11738614_at) / Fold change /veh KRTAP10-2 (11738614_at) / RFU ARHGAP8 /// PRR5-ARHGAP8 (11727945_x_at) / Fold change /veh ARHGAP8 /// PRR5-ARHGAP8 (11727945_x_at) / RFU KRTAP5-7 /// NADSYN1 (11734609_at) / Fold change /veh KRTAP5-7 /// NADSYN1 (11734609_at) / RFU RASL12 (11751679_a_at) / Fold change /veh RASL12 (11751679_a_at) / RFU CDKN2B (11736163_a_at) / Fold change /veh CDKN2B (11736163_a_at) / RFU PRF1 (11729649_at) / Fold change /veh PRF1 (11729649_at) / RFU, ZNF638 /// ZNF638-IT1 / Fold change vs veh, ZNF638 /// ZNF638-IT1 / RFU, PANK3 / Fold change vs veh, PANK3 / RFU, SH3YL1 / Fold change vs veh, SH3YL1 / RFU, ZEB2 / Fold change vs veh, ZEB2 / RFU, NRIP1 / Fold change vs veh, NRIP1 / RFU, PTTG1IP / Fold change vs veh, PTTG1IP / RFU, CAPN2 / Fold change vs veh, CAPN2 / RFU, MED14 / Fold change vs veh, MED14 / RFU, SNORA58 / Fold change vs veh, SNORA58 / RFU, C1orf63 / Fold change vs veh, C1orf63 / RFU, LRRFIP1 / Fold change vs veh, LRRFIP1 / RFU, NDUFAF7 / Fold change vs veh, NDUFAF7 / RFU, SLC12A2 / Fold change vs veh, SLC12A2 / RFU, IBTK / Fold change vs veh, IBTK / RFU, ESF1 / Fold change vs veh, ESF1 / Fold change vs veh, TMEM50B / RFU, TAOK1 / Fold change vs veh, TAOK1 / RFU, ACBD3 / Fold change vs veh, ACBD3 / RFU, TMA16 / Fold change vs veh, TMA16 / RFU, RWDD3 / Fold change vs veh, RWDD3 / RFU, BCAT1 / Fold change vs veh, BCAT1 / RFU, EDEM3 / Fold change vs veh, EDEM3 / RFU, TMEM33 / Fold change vs veh, TMEM33 / RFU, WDR75 / Fold change vs veh, WDR75 / RFU, AHCTF1 / Fold change vs veh, AHCTF1 / RFU, TFRC / Fold change vs veh, TFRC / RFU, ZDHHC17 / Fold change vs veh, ZDHHC17 / RFU, NOM1 / Fold change vs veh, NOM1 / RFU, ARL8B / Fold change vs veh, ARL8B / RFU, ZBTB11 / Fold change vs veh, ZBTB11 / RFU, TAMM41 / Fold change vs veh, TAMM41 / RFU, KIAA1704 /// LOC100996395 / Fold change vs veh, KIAA1704 /// LOC100996395 / RFU, ING1 / Fold change vs veh, ING1 / RFU, TRMT61B / Fold change vs veh, TRMT61B / RFU, FUBP3 / Fold change vs veh, FUBP3 / RFU, TP53 / Fold change vs veh, TP53 / RFU, TNKS2 / Fold change vs veh, TNKS2 / RFU, ZFP14 / Fold change vs veh, ZFP14 / RFU, ACTR2 / Fold change vs veh, ACTR2 / RFU, PPP3R1 / Fold change vs veh, PPP3R1 / RFU, PIK3R1 / Fold change vs veh, PIK3R1 / RFU, HNRNPA1 / Fold change vs veh, HNRNPA1 / RFU, RNF170 / Fold change vs veh, RNF170 / RFU, ZNF28 / Fold change vs veh, ZNF28 / RFU, RNGTT / Fold change vs veh, RNGTT / RFU, OGT / Fold change vs veh, OGT / RFU, BRD1 / Fold change vs veh, BRD1 / RFU, MARS / Fold change vs veh, MARS / RFU, ZNF655 / Fold change vs veh, ZNF655 / RFU, FAHD1 / Fold change vs veh, FAHD1 / RFU, BDP1 / Fold change vs veh, BDP1 / RFU, LRRCC1 / Fold change vs veh, LRRCC1 / RFU, ARID1A / Fold change vs veh, ARID1A / RFU, ZNF146 / Fold change vs veh, ZNF146 / RFU, ZNF330 / Fold change vs veh, ZNF330 / RFU, GPN3 / Fold change vs veh, GPN3 / RFU, C9orf123 / Fold change vs veh, C9orf123 / RFU, N4BP2L2 / Fold change vs veh, N4BP2L2 / RFU, ARFIP1 / Fold change vs veh, ARFIP1 / RFU, FAM179B / Fold change vs veh, FAM179B / RFU, BCL10 / Fold change vs veh, BCL10 / RFU, UHRF1BP1L / Fold change vs veh, UHRF1BP1L / RFU, BET1 / Fold change vs veh, BET1 / RFU, CNOT2 / Fold change vs veh, CNOT2 / RFU, ZNF268 / Fold change vs veh, ZNF268 / Fold change vs veh, ZNF507 / RFU, DGCR2 / Fold change vs veh, DGCR2 / RFU, WDSUB1 / Fold change vs veh, WDSUB1 / Fold change vs veh, HSP90B1 /// MIR3652 / RFU, ADSS / Fold change vs veh, ADSS / RFU, GK / Fold change vs veh, GK / RFU, ZNF148 / Fold change vs veh, ZNF148 / RFU, TAF9 / Fold change vs veh, TAF9 / RFU, SLC1A5 / Fold change vs veh, SLC1A5 / RFU, SLMO2 / Fold change vs veh, SLMO2 / RFU, ABCC4 / Fold change vs veh, ABCC4 / RFU, LOC101060439 /// RAP1B / Fold change vs veh, LOC101060439 /// RAP1B / RFU, RFX7 / Fold change vs veh, RFX7 / RFU, GTPBP10 / Fold change vs veh, GTPBP10 / RFU, CNEP1R1 / Fold change vs veh, CNEP1R1 / RFU, BIVM-ERCC5 /// ERCC5 / Fold change vs veh, BIVM-ERCC5 /// ERCC5 / RFU, ILF3 / Fold change vs veh, ILF3 / RFU 11762660_at / Fold change /veh 11762660_at / RFU VCAN (11757783_s_at) / Fold change /veh VCAN (11757783_s_at) / RFU DDX43 (11728927_at) / Fold change /veh DDX43 (11728927_at) / RFU KRT8 (11758188_x_at) / Fold change /veh KRT8 (11758188_x_at) / RFU NKD1 (11759106_at) / Fold change /veh NKD1 (11759106_at) / RFU SRD5A1 (11742802_a_at) / Fold change /veh SRD5A1 (11742802_a_at) / RFU TPSAB1 /// TPSB2 (11721975_s_at) / Fold change /veh TPSAB1 /// TPSB2 (11721975_s_at) / RFU GSTM3 (11746129_a_at) / Fold change /veh GSTM3 (11746129_a_at) / RFU IL23R (11737362_x_at) / Fold change /veh IL23R (11737362_x_at) / RFU TMEM51 (11727254_a_at) / Fold change /veh TMEM51 (11727254_a_at) / RFU PIWIL2 (11732686_x_at) / Fold change /veh PIWIL2 (11732686_x_at) / RFU ORM1 (11744905_x_at) / Fold change /veh ORM1 (11744905_x_at) / RFU CCDC152 (11743942_at) / Fold change /veh CCDC152 (11743942_at) / RFU ECM1 (11717891_a_at) / Fold change /veh ECM1 (11717891_a_at) / RFU IL23R (11748794_a_at) / Fold change /veh IL23R (11748794_a_at) / RFU TNFAIP8L3 (11732012_x_at) / Fold change /veh TNFAIP8L3 (11732012_x_at) / RFU MBOAT4 (11741988_at) / Fold change /veh MBOAT4 (11741988_at) / RFU 11764193_at / Fold change /veh 11764193_at / RFU TMEM53 (11763286_at) / Fold change /veh TMEM53 (11763286_at) / RFU MAGEB2 (11727129_at) / Fold change /veh MAGEB2 (11727129_at) / RFU TMEM200A (11744735_a_at) / Fold change /veh TMEM200A (11744735_a_at) / RFU CCDC152 (11751479_a_at) / Fold change /veh CCDC152 (11751479_a_at) / RFU FAM211A (11726209_a_at) / Fold change /veh FAM211A (11726209_a_at) / RFU RGS16 (11746705_a_at) / Fold change /veh RGS16 (11746705_a_at) / RFU VCAN (11755009_s_at) / Fold change /veh VCAN (11755009_s_at) / RFU RHOB (11743442_s_at) / Fold change /veh RHOB (11743442_s_at) / RFU RGS16 (11720943_a_at) / Fold change /veh RGS16 (11720943_a_at) / RFU RGS16 (11720944_at) / Fold change /veh RGS16 (11720944_at) / RFU, VPS4B / Fold change vs veh, VPS4B / RFU, CREB1 / Fold change vs veh, CREB1 / RFU, DNAJC13 / Fold change vs veh, DNAJC13 / RFU, GNAQ / Fold change vs veh, GNAQ / RFU, CDK5R1 / Fold change vs veh, CDK5R1 / RFU, ZRANB3 / Fold change vs veh, ZRANB3 / RFU, CUL4A / Fold change vs veh, CUL4A / RFU, CCNY / Fold change vs veh, CCNY / RFU, UFL1 / Fold change vs veh, UFL1 / RFU, COG3 / Fold change vs veh, COG3 / RFU, DIAPH2 / Fold change vs veh, DIAPH2 / RFU, SKA2 / Fold change vs veh, SKA2 / RFU, AFF3 / Fold change vs veh, AFF3 / RFU, LMF1 / Fold change vs veh, LMF1 / RFU, IPO11 / Fold change vs veh, IPO11 / RFU, DFFB / Fold change vs veh, DFFB / RFU, FOXP1 / Fold change vs veh, FOXP1 / RFU, CARD8 / Fold change vs veh, CARD8 / RFU, STRN3 / Fold change vs veh, STRN3 / RFU, ADK / Fold change vs veh, ADK / RFU, RASSF2 / Fold change vs veh, RASSF2 / RFU, WIPF1 / Fold change vs veh, WIPF1 / RFU, LARP1B / Fold change vs veh, LARP1B / RFU, RASA1 / Fold change vs veh, RASA1 / RFU, RB1 / Fold change vs veh, RB1 / RFU, PPFIA1 / Fold change vs veh, PPFIA1 / RFU, MAT2A / Fold change vs veh, MAT2A / RFU, CCT5 / Fold change vs veh, CCT5 / RFU, WDR92 / Fold change vs veh, WDR92 / RFU, CUX1 / Fold change vs veh, CUX1 / RFU, TTC7A / Fold change vs veh, TTC7A / RFU, TMEM135 / Fold change vs veh, TMEM135 / RFU, DEPTOR / Fold change vs veh, DEPTOR / RFU, CPM / Fold change vs veh, CPM / RFU, DNAJB6 / Fold change vs veh, DNAJB6 / RFU, CACNA2D3 / Fold change vs veh, CACNA2D3 / RFU, DTX4 / Fold change vs veh, DTX4 / RFU, TFCP2 / Fold change vs veh, TFCP2 / RFU, GMCL1 /// GMCL1P1 / Fold change vs veh, GMCL1 /// GMCL1P1 / RFU, AEBP2 / Fold change vs veh, AEBP2 / RFU, SNHG1 /// SNORD22 /// SNORD25 /// SNORD26 /// SNORD27 /// SNORD28 /// SNORD29 /// SNORD31 / Fold change vs veh, SNHG1 /// SNORD22 /// SNORD25 /// SNORD26 /// SNORD27 /// SNORD28 /// SNORD29 /// SNORD31 / Fold change (Aza/veh), C12orf56 (ProbeSet 11735607_a_at) / Fold change (ACY-1035/veh), C12orf56 (ProbeSet 11735607_a_at) / Fold change (Aza/veh), FGFR1OP (ProbeSet 11751329_s_at) / Fold change (ACY-1035/veh), FGFR1OP (ProbeSet 11751329_s_at) / Fold change (Aza/veh), VPS36 (ProbeSet 11739960_a_at) / Fold change (ACY-1035/veh), VPS36 (ProbeSet 11739960_a_at) / RFU SYPL1 (11715823_x_at) / Fold change /veh SYPL1 (11715823_x_at) / RFU IGFBP7 (11715501_s_at) / Fold change /veh IGFBP7 (11715501_s_at) / RFU REEP3 (11722064_at) / Fold change /veh REEP3 (11722064_at) / RFU IGLL1 (11728026_x_at) / Fold change /veh IGLL1 (11728026_x_at): dose or concentration left out as unconfirmed
Conditions: ProbeSet 11755436_x_at; LIST B

## Nc1ncn([C@@H]2O[C@H](CO)[C@@H](O)[C@H]2O)c(=O)n1 [azacitidine]
  Fold change vs veh, ARID1A: 1.10
